Read-outs that look alike come from different tables or passages of the source. Square brackets hold non-standard residues; d marks the D form. Ends that are not written are not given here.
How the values were obtained:
rats = assay: Mean arterial pressure (MAP) in rats after Tat peptides with or without anti-inflammatory agents
rat 3PVO model of stroke = assay: Rat 3PVO model of stroke, lodoxamide co-formulation; format: in vivo; details: FIG. 15
Description: Methods for Three pial vessel occlusion model of ischemia (3PVO): Experiments were performed on fasted rats (free overnight access to water but not food). […] In brief, rats were anesthetized with a 0.5 ml/kg intramuscular injection of ketamine (100 mg/kg), acepromazine (2 mg/kg), and xylazine (5 mg/kg), supplemented with one-third of the initial dose as required. A rectal temperature was monitored and the animal body temperature was maintained at 37° C. by using a heating pad. The skull was exposed via a midline incision and scraped free of tissue. Using a dissecting microscope and a pneumatic dental drill, a 6- to 8-mm rectangular cranial window was made over the right somatosensory cortex (2 mm caudal and 5 mm lateral to bregma) and the loose piece of skull was removed while keeping the dura intact. The 3 pial arteriolar middle cerebral artery branches were electrically cauterized around the barrel cortex area. Incision was sutured with 3.0 silk sutures. Animals were returned to individual cages under a heating lamp to maintain body temperature until the rats fully recovered. Food and water was supplied. One hour after 3PVO ischemia the rats were injected with 3 μM/kg Tat-NR2B9c or Rv-Tat-NR2B9c intravenously through tail vein. […] Images were scanned (CanoScan, 4200F, Canon). Infarct percentage was calculated per slice using Image J software (NIH). […]

mast cells = assay: Mast cell degranulation assay (tryptase activity); format: cell-based, mouse; set-up: Mast cell degranulation (relative tryptase activity): dose or concentration left out as unconfirmed; details: for Dose dependence of mast cell degranulation: increasing concentrations, FIG. 3
[1] = test system: Sprague Dawley rats, P3VO model of stroke; assay: Pial 3 vessel occlusion (P3VO) model of stroke, infarct size; format: in vivo, rat; details: 3 nM/g i.v. 1 h after stroke, vs saline
[2] = Table 1 comment; cited from earlier work
Sprague Dawley rats = assay: MAP in rats: lodoxamide co-formulation or cromolyn infusion with Tat-NR2B9c; format: in vivo, rat; details: for Effect on drop in MAP resulting from Tat-NR2B9c: cromolyn infused for three minutes immediately before Tat-NR2B9c, FIG. 13B
Description: Animals (male, Sprague Dawley) were allowed to eat and drink before surgery. Animals were put to sleep in a chamber with 2% isoflurane and 1 L oxygen. Once asleep, rat was transferred to a face mask at 1% isoflurane and a gas of 1 L oxygen. PE50 tubing was used for connection of the femoral artery and vein. These arteries and veins provide access for continual monitoring of arterial pressure and for drug infusion (50 mg per kg in a volume of 2 ml per kg injected with in 2 minutes). Surgeries were done on the left side. Animal's blood pressure and body temperature was monitored for 90 minutes.

cerebral ischemia = details: reported in WO 2008/014917; cited from earlier work
Beagle dogs = assay: Antihistamine pre-treatment before Tat-NR2B9c in dogs; details: benadryl 1 mg/kg 30 minutes before 12.5 mg/kg Tat-NR2B9c; female dog
PSD95 / NMDAR 2B = PSD95 / NMDAR 2B (Homo sapiens, UniProt P78352); details: reported by Bach; cited from earlier work
[3] = test system: animal model of infarction; details: cited from earlier work

PSD95 / NMDAR 2B, sequence (P78352 whole entry): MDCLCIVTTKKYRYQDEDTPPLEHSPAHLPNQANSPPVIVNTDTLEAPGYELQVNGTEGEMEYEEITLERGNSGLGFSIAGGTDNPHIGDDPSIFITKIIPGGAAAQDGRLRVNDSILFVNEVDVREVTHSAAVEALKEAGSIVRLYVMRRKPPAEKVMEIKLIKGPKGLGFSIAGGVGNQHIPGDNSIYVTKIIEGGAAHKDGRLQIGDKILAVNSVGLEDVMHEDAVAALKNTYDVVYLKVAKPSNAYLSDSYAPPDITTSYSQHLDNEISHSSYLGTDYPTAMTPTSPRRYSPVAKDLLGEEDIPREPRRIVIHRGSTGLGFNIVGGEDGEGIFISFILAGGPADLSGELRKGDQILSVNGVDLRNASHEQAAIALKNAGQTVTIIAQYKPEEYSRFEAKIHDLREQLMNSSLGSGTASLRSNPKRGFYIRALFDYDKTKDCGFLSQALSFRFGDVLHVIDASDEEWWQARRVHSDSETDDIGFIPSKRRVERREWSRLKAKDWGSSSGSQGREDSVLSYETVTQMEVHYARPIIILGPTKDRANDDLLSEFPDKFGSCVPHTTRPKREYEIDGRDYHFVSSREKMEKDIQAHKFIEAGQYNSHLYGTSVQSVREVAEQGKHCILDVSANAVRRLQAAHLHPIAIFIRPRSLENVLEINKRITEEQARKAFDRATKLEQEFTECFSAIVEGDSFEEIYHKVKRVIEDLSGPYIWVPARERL

COc1ccc(CN(CCN(C)C)c2ccccn2)cc1 [pyrilamine]
Reduction of maximal decline in blood pressure due to Tat-NR2B9c (rats; pyrilamine, FIGS. 10A-D): did not achieve statistical significance

H-YGRKKRRQRRRKLSSIESDV-OH [Tat-NR2B9c]
Infarction size relative to vehicle control (rat 3PVO model of stroke): significantly inhibited infarction size | Dose dependence of mast cell degranulation (mast cells): dose dependent | Infarct size 24 hours after P3VO surgery ([1]; female rats): complete lack of infarct | Infarct size 24 hours after P3VO surgery ([1]; male rats): significantly decreased infarct size

NCCc1ccc(O)c(O)c1 [Dopamine]
BBB crossing [2]: Cannot cross

YGRKKRRQRRRKLSSIEADA (Synthetic Tat-NR2B9c peptide with 2 point mutations in the PSD-95 binding domain) [AA]
Dose dependence of mast cell degranulation (mast cells): dose dependent

NC(=O)CN1CCCC1=O [Piracetam]
BBB crossing [2]: Cannot cross

N#Cc1cc(NC(=O)C(=O)O)c(Cl)c(NC(=O)C(=O)O)c1 [lodoxamide, 2-[2-chloro-5-cyano-3-(oxaloamino)anilino]-2-oxoacetic acid]
Effect on drop in MAP resulting from Tat-NR2B9c injection (Sprague Dawley rats; 6 mg/kg lodoxamide co-formulated with Tat-NR2B9c (3 mg/kg, 3 mM/kg elsewhere in the source), 2 minute infusion, FIG. 13A): completely abrogate the drop in MAP

vdseisslk-rrrqrrkkrgyin ([dV][dD][dS][dE][dI][dS][dS][dL][dK][dR][dR][dR][dQ][dR][dR][dK][dK][dR]G[dY][dI][dN]; also: retro-inverso)
Inhibition of cerebral ischemia (cerebral ischemia): effective in inhibiting cerebral ischemia

N[C@@H](Cc1ccc(O)c(O)c1)C(=O)O [Levodopa]
halflife [2]: halflife = 1.5 hrs

CN(C)CCOC(c1ccccc1)c1ccccc1 [diphenhydramine]
Reaction after pre-treatment (Beagle dogs): no reaction | Effect of the agent itself on blood pressure (rats; diphenhydramine 1 mg/kg): did not itself reduce blood pressure | Effect on decline of blood pressure due to Tat-NR2B9c (rats; diphenhydramine 1 mg/kg): not observed to have a significant effect | Effect of the agent itself on blood pressure before Tat-NR2B9c (rats; diphenhydramine 12.5 mg/kg): caused a sharp reduction in blood pressure | Effect on decline in blood pressure due to Tat-NR2B9c (rats; diphenhydramine 12.5 mg/kg, FIGS. 9A-D): significantly inhibited decline in blood pressure

IESDV (synthetic pentamer peptide from the C-terminus of NMDAR 2B)
Inhibition of binding of NMDAR 2B to PSD95 (PSD95 / NMDAR 2B): effective in inhibiting binding of NMDAR 2B to PSD95

CN[C@H](CC(C)C)C(=O)N[C@H]1C(=O)N[C@@H](CC(N)=O)C(=O)N[C@H]2C(=O)N[C@H]3C(=O)N[C@H](C(=O)N[C@H](C(=O)O)c4cc(O)cc(O)c4-c4cc3ccc4O)[C@H](O)c3ccc(c(Cl)c3)Oc3cc2cc(c3O[C@@H]2O[C@H](CO)[C@@H](O)[C@H](O)[C@H]2O[C@H]2C[C@](C)(N)[C@H](O)[C@H](C)O2)Oc2ccc(cc2Cl)[C@H]1O [Vacomycin]
halflife [2]: uptake, 4-6 hr

O=C(O)c1cc(=O)c2c(OCC(O)COc3cccc4oc(C(=O)O)cc(=O)c34)cccc2o1 [cromolyn, 5,5′-(2-hydroxypropane-1,3-diyl)bis(oxy)bis(4-oxo-4H-chromene-2-carboxylic acid)]
Direct activity in inhibiting infarctions ([3]; administered i.c.v.): has direct activity in inhibiting infarctions | Direct activity in inhibiting infarctions ([3]; administered intravenously): not intravenously | Effect on decline of MAP due to Rv-Tat-NR2B9c (rats; cromolyn before Rv-Tat-NR2B9c, FIGS. 8E and F): significantly inhibited decline of MAP values | Effect on MAP in the absence of Tat-NR2B9c (rats; cromolyn plus saline control): did not itself affect MAP | Effect on drop in MAP resulting from Tat-NR2B9c (Sprague Dawley rats): completely abrogate a drop in MAP | Effect on drop in MAP resulting from Tat-NR2B9c (Sprague Dawley rats; listed as Cromolyn): completely abrogated the drop in MAP

CNC(=C[N+](=O)[O-])NCCSCc1ccc(CN(C)C)o1 [Ranitidine]
Effect of the agent itself on MAP (rats; Ranitidine only): no effect on MAP itself

KLSSIESDV (Synthetic pharmacologic agent) [NR2B9c]
Mast cell degranulation (relative tryptase activity) (mast cells; FIG. 2): did not | Mast cell degranulation, Tat sequence variants (mast cells; all at 50 μM, Table 5 prints 125 mg/ml, FIG. 4): did not elicit this reaction

From US10046060B2, “Co-administration of an agent linked to an internalization peptide with an anti-inflammatory” (NoNO Inc., priority 2007, dated 2018)
